Measurements published in the OligoGym collection.
After the bases stand the sugars from the 5' end (letter, count) and the backbone: PS all phosphorothioate, else s phosphorothioate and o phosphodiester by linkage. Methylation of C is not given here. e = 2'-O-(2-methoxyethyl) (MOE); k = constrained ethyl (cEt); d = 2'-deoxy (DNA); m = 2'-O-methyl

Biological target: HSD17B13
Conditions: ASO, HepaRG

Row | Sequence | target mRNA inhibition (1 µM) [%] | also measured
1 | CTATAACTGGAAGGAG (sugars k3 d10 k3, PS) | 43 | 
2 | CTATATAAATTCTGAC (sugars k3 d10 k3, PS) | 0 | 
3 | CTATATACATCCAAGT (sugars k3 d10 k3, PS) | 6 | 
4 | CTATGCAAGCCTTCAC (sugars k3 d10 k3, PS) | 19 | 
5 | CTATTAGTTGGCCTGC (sugars k3 d10 k3, PS) | 32 | 
6 | CTCAAAGCCTGTTGGA (sugars k3 d10 k3, PS) | 10 | 
7 | CTCAAATAGCCTTTTG (sugars k3 d10 k3, PS) | 64 | 
8 | CTCAAGGAGTACTTCA (sugars k3 d10 k3, PS) | 82 | target mRNA inhibition (0.02 µM): 2%; target mRNA inhibition (0.078 µM): 2%; target mRNA inhibition (0.313 µM): 30%; target mRNA inhibition (1.25 µM): 78%; target mRNA inhibition (5 µM): 95%
9 | CTCAGAGTTCAGGCAA (sugars k3 d10 k3, PS) | 67 | 
10 | CTCAGGCTGTAAGAGT (sugars k3 d10 k3, PS) | 21 | 
11 | CTCCAAGTAGGAGTAG (sugars k3 d10 k3, PS) | 5 | 
12 | CTCCAATACAGGCCAT (sugars k3 d10 k3, PS) | 20 | 
13 | CTCCATAATAATAGCT (sugars k3 d10 k3, PS) | 59 | 
14 | CTCCGTTATAAGTTTC (sugars k3 d10 k3, PS) | 59 | 
15 | CTCCTGGTACATGCCA (sugars k3 d10 k3, PS) | 47 | 
16 | CTCCTTATGTTATCTC (sugars k3 d10 k3, PS) | 57 | 
17 | CTCGCCTAAAGGAGAT (sugars k3 d10 k3, PS) | 56 | 
18 | CTCGCGAGATGATGTT (sugars k3 d10 k3, PS) | 40 | 
19 | CTCTAAAGCAGGCTAC (sugars k3 d10 k3, PS) | 51 | 
20 | CTCTGGGACCAAGGAT (sugars k3 d9 k3 e1, PS) | 62 | 
21 | CTCTTAGCTGTGCACT (sugars k3 d10 k3, PS) | 53 | 

Row | Sequence | target mRNA inhibition (1 µM) [%] | also measured
22 | CTCTTATCTGATATGA (sugars k3 d10 k3, PS) | 7 | 
23 | CTCTTCATCCTTGGTG (sugars k3 d10 k3, PS) | 25 | 
24 | CTGAAATTGATACACC (sugars k3 d10 k3, PS) | 67 | 
25 | CTGAAATTGATACACC (sugars kkdddddddddkekek, PS) | 45 | 
26 | CTGAGAAGATCGGCTG (sugars k3 d10 k3, PS) | 37 | 
27 | CTGAGCTAGACAATTG (sugars k3 d10 k3, PS) | 56 | 
28 | CTGATGTCAGACCTCT (sugars k3 d10 k3, PS) | 35 | 
29 | CTGATTTAGTTGGTAG (sugars k3 d10 k3, PS) | 78 | target mRNA inhibition (0.02 µM): 0%; target mRNA inhibition (0.078 µM): 0%; target mRNA inhibition (0.313 µM): 41%; target mRNA inhibition (1.25 µM): 70%; target mRNA inhibition (5 µM): 88%
30 | CTGCCAGGGAATGCTC (sugars k3 d10 k3, PS) | 23 | 
31 | CTGCTACTCTAGGAGA (sugars k3 d10 k3, PS) | 66 | 
32 | CTGCTAGTGCCAAACC (sugars kkdddddddddkekek, PS) | 51 | 
33 | CTGCUAGTGCCAAACC (sugars k3 d1 m1 d8 k3, PS) | 67 | 
34 | CTGCUGCTAGTGCCAA (sugars k3 d1 m1 d8 k3, PS) | 66 | 
35 | CTGGAAGGAGGATTCA (sugars k3 d10 k3, PS) | 39 | 
36 | CTGGAGGTATGTCATA (sugars k3 d10 k3, PS) | 23 | 
37 | CTGGATATACTGTCCC (sugars k3 d10 k3, PS) | 20 | 
38 | CTGGGACCAAGGATAT (sugars k3 d10 k3, PS) | 32 | 
39 | CTGGGATACTATTCTC (sugars k3 d10 k3, PS) | 57 | 
40 | CTGGTTCAGTCCTTGT (sugars k3 d10 k3, PS) | 63 | 
41 | CTGTGAGAGGATAGTG (sugars k3 d10 k3, PS) | 33 | 
